Assay results taken from the supplement of paper PMC10307832.

Experiments:
Assay in all cases: relative viability (nuclei count vs DMSO), 5 days (fraction); higher = more cells survive
[1] = tested on: NCI-H1993
How it was run: (§1)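 The day after seeding in 1536-well plates, lung cancer cell lines were treated by pin tool with a single drug, or with a fixed anchor-drug dose together with five library-drug doses (not always all listed) in √10 steps. After 5 days, a combined fix-and-stain solution (final 0.05% Triton X-100, 1% formaldehyde, 1 ug/ml Hoechst) was added. Nuclei counted on 4× images gave relative viability as treated counts over vehicle counts, reported as the median of duplicate plates.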

[2] = tested on: NCI-H1395
How it was run: as §1

[3] = tested on: LU99A
How it was run: as §1

[4] = tested on: COR-L 105
How it was run: as §1

[5] = tested on: CAL-12T
How it was run: as §1

[6] = tested on: PC-3 [JPC-3]
How it was run: as §1

[7] = tested on: LC-2-ad
How it was run: as §1

[8] = tested on: NCI-H1944
How it was run: as §1

[9] = tested on: NCI-H3122
How it was run: as §1

[10] = tested on: NCI-H1734
How it was run: as §1

[11] = tested on: HCC-15
How it was run: as §1

[12] = tested on: HARA
How it was run: as §1

[13] = tested on: PC-14
How it was run: as §1

[14] = tested on: SK-LU-1
How it was run: as §1

[15] = tested on: NCI-H838
How it was run: as §1

[16] = tested on: HCC-366
How it was run: as §1

[17] = tested on: NCI-H1666
How it was run: as §1

[18] = tested on: NCI-H1975
How it was run: as §1

[19] = tested on: H3255
How it was run: as §1

[20] = tested on: NCI-H647
How it was run: as §1

[21] = tested on: NCI-H522
How it was run: as §1

COCC1(CO)C(=O)C2CCN1CC2 (configuration not stated) [PRIMA-1MET] + Cc1cc(Nc2cc(N3CCN(C)CC3)nc(Sc3ccc(NC(=O)C4CC4)cc3)n2)n[nH]1 [Tozasertib] (partner 0.1 µM)
relative viability ([1]; first compound 0.2 µM): 0.674 | relative viability ([1]; first compound 0.6325 µM): 0.541 | relative viability ([1]; first compound 2 µM): 0.566 | relative viability ([1]; first compound 6.325 µM): 0.569 | relative viability ([1]; first compound 20 µM): 0.662 | relative viability ([2]; first compound 0.2 µM): 0.823 | relative viability ([2]; first compound 0.6325 µM): 0.556 | relative viability ([2]; first compound 2 µM): 0.768 | relative viability ([2]; first compound 6.325 µM): 0.885 | relative viability ([2]; first compound 20 µM): 0.518 | relative viability ([3]; first compound 0.2 µM): 0.282 | relative viability ([3]; first compound 0.6325 µM): 0.268 | relative viability ([3]; first compound 2 µM): 0.277 | relative viability ([3]; first compound 6.325 µM): 0.284 | relative viability ([3]; first compound 20 µM): 0.0311 | relative viability ([4]; first compound 0.2 µM): 0.228 | relative viability ([4]; first compound 0.6325 µM): 0.338 | relative viability ([4]; first compound 2 µM): 0.32 | relative viability ([4]; first compound 6.325 µM): 0.294 | relative viability ([4]; first compound 20 µM): 0.167 | relative viability ([5]; first compound 0.2 µM): 0.339 | relative viability ([5]; first compound 0.6325 µM): 0.275 | relative viability ([5]; first compound 2 µM): 0.282 | relative viability ([5]; first compound 6.325 µM): 0.326 | relative viability ([5]; first compound 20 µM): 0.263 | relative viability ([6]; first compound 0.2 µM): 0.996 | relative viability ([6]; first compound 0.6325 µM): 0.856 | relative viability ([6]; first compound 2 µM): 0.857 | relative viability ([6]; first compound 6.325 µM): 0.89 | relative viability ([6]; first compound 20 µM): 0.873 | relative viability ([7]; first compound 0.2 µM): 0.422 | relative viability ([7]; first compound 2 µM): 0.399 | relative viability ([7]; first compound 6.325 µM): 0.429 | relative viability ([7]; first compound 20 µM): 0.394 | relative viability ([8]; first compound 0.2 µM): 0.225 | relative viability ([8]; first compound 0.6325 µM): 0.242 | relative viability ([8]; first compound 2 µM): 0.222 | relative viability ([8]; first compound 6.325 µM): 0.243 | relative viability ([8]; first compound 20 µM): 0.23 | relative viability ([9]; first compound 0.2 µM): 0.524 | relative viability ([9]; first compound 0.6325 µM): 0.361 | relative viability ([9]; first compound 6.325 µM): 0.388 | relative viability ([9]; first compound 20 µM): 0.337 | relative viability ([10]; first compound 0.2 µM): 0.294 | relative viability ([10]; first compound 0.6325 µM): 0.265 | relative viability ([10]; first compound 2 µM): 0.233 | relative viability ([10]; first compound 6.325 µM): 0.181 | relative viability ([10]; first compound 20 µM): 0.0526 | relative viability ([11]; first compound 0.2 µM): 0.431 | relative viability ([11]; first compound 0.6325 µM): 0.363 | relative viability ([11]; first compound 2 µM): 0.356 | relative viability ([11]; first compound 6.325 µM): 0.422 | relative viability ([11]; first compound 20 µM): 0.151 | relative viability ([12]; first compound 0.2 µM): 0.119 | relative viability ([12]; first compound 0.6325 µM): 0.0972 | relative viability ([12]; first compound 6.325 µM): 0.112 | relative viability ([12]; first compound 20 µM): 0.118 | relative viability ([13]; first compound 0.2 µM): 0.629 | relative viability ([13]; first compound 0.6325 µM): 0.55 | relative viability ([13]; first compound 2 µM): 0.519 | relative viability ([13]; first compound 6.325 µM): 0.714 | relative viability ([13]; first compound 20 µM): 0.386 | relative viability ([14]; first compound 0.2 µM): 0.4 | relative viability ([14]; first compound 0.6325 µM): 0.371 | relative viability ([14]; first compound 2 µM): 0.319 | relative viability ([14]; first compound 6.325 µM): 0.344 | relative viability ([14]; first compound 20 µM): 0.24 | relative viability ([15]; first compound 0.2 µM): 0.291 | relative viability ([15]; first compound 0.6325 µM): 0.286 | relative viability ([15]; first compound 2 µM): 0.245 | relative viability ([15]; first compound 6.325 µM): 0.293 | relative viability ([15]; first compound 20 µM): 0.194 | relative viability ([16]; first compound 0.2 µM): 0.109 | relative viability ([16]; first compound 0.6325 µM): 0.107 | relative viability ([16]; first compound 2 µM): 0.107 | relative viability ([16]; first compound 6.325 µM): 0.209 | relative viability ([16]; first compound 20 µM): 0.0297 | relative viability ([17]; first compound 0.2 µM): 0.592 | relative viability ([17]; first compound 0.6325 µM): 0.601 | relative viability ([17]; first compound 2 µM): 0.66 | relative viability ([17]; first compound 6.325 µM): 0.554 | relative viability ([17]; first compound 20 µM): 0.388 | relative viability ([18]; first compound 0.2 µM): 1.05 | relative viability ([18]; first compound 0.6325 µM): 0.726 | relative viability ([18]; first compound 2 µM): 0.878 | relative viability ([18]; first compound 6.325 µM): 0.738 | relative viability ([18]; first compound 20 µM): 0.454 | relative viability ([19]; first compound 0.2 µM): 0.807 | relative viability ([19]; first compound 0.6325 µM): 0.765 | relative viability ([19]; first compound 2 µM): 0.461 | relative viability ([19]; first compound 6.325 µM): 0.615 | relative viability ([19]; first compound 20 µM): 0.505 | relative viability ([20]; first compound 0.2 µM): 0.615 | relative viability ([20]; first compound 0.6325 µM): 0.324 | relative viability ([20]; first compound 2 µM): 0.263 | relative viability ([20]; first compound 6.325 µM): 0.543 | relative viability ([20]; first compound 20 µM): 0.0988 | relative viability ([21]; first compound 0.2 µM): 0.602 | relative viability ([21]; first compound 0.6325 µM): 0.455 | relative viability ([21]; first compound 2 µM): 0.46 | relative viability ([21]; first compound 6.325 µM): 0.507 | relative viability ([21]; first compound 20 µM): 0.0873
